Measured values from patent publication US4209426A, “Polypeptides related to somatostatin” (American Home Products Corporation, priority 1979, dated 1980).
Where a name gives a salt, the structure may show the parent alone. Bridge positions count the residues as written; N and C are the ends. Square brackets hold non-standard residues; d marks the D form. Peptide text beside a SMILES is read from it.

How the values were obtained:
Type in all cases: in vivo
[1] = system: growth hormone (GH); assay: Arginine-stimulated growth hormone secretion in Nembutal-anesthetized rats, radioimmunoassay of blood; conditions: for GH: albino male rats; for dose effective for reducing secretion of growth hormone, glucagon, and insulin levels: rats, subcutaneous, summary statement covering GH
Description: (§1) The biological activity of the products of the preceding preparatory examples were determined by the following procedure:
(§2) Albino male rats were administered Nembutal intraperitoneally at a dose of 50 milligrams per kilogram. Fifteen minutes later a subcutaneous injection of the test compound of physiological saline was administered. Ten minutes later 0.5 milliliters of arginine (300 milligrams per milliliter, pH 7.2) is injected into the heart. Five minutes after receipt of the arginine the rats are decapitated and blood is collected into trasylol-EDTA. An appropriate aliquot was assayed for growth hormone (GH), insulin and glucagon by radio immunoassay.

[2] = system: insulin; assay: Arginine-stimulated insulin secretion in Nembutal-anesthetized rats, radioimmunoassay of blood; conditions: albino male rats
Description: as §1, §2

[3] = system: glucagon; assay: Arginine-stimulated glucagon secretion in Nembutal-anesthetized rats, radioimmunoassay of blood; conditions: for GLUN: albino male rats; for dose with selectivity of action toward glucagon: rats, subcutaneous, summary statement
Description: as §1, §2

[4] = 200 μg/kg subcutaneous, blood 15 min after compound (5 min after arginine), control 268 ± 46 (Example 2), 407 ± 62 (Example 3)
[5] = 200 μg/kg subcutaneous, blood 15 min after compound, control 323 ± 28 (Example 2), 271 ± 44 (Example 3)
[6] = 200 μg/kg subcutaneous, blood 15 min after compound, control 379 ± 109 (Example 2), 46 ± 72 (Example 3)

| Compound | GH ([1]; 10 μg/kg subcutaneous, control 335 ± 33) [ng/mL] | GH ([1]; 50 μg/kg subcutaneous, control 202 ± 11) [ng/mL] | GH [1, 4] [ng/mL] | dose effective for reducing secretion of growth hormone, glucagon, and insulin levels [1] [micrograms per kilogram] | INS ([2]; 10 μg/kg subcutaneous, control 309 ± 31) [μU/ml.] | INS ([2]; 50 μg/kg subcutaneous, control 238 ± 23) [μU/ml.] | INS [2, 5] [μU/ml.] | GLUN ([3]; 10 μg/kg subcutaneous, control 52 ± 10) [pg/mL] | GLUN ([3]; 50 μg/kg subcutaneous, control 86 ± 6) [pg/mL] | GLUN [3, 6] [pg/mL] | dose with selectivity of action toward glucagon [3] [micrograms per kilogram] |
| --- | --- | --- | --- | --- | --- | --- | --- | --- | --- | --- | --- |
| C[C@@H](O)[C@@H]1NC(=O)[C@H](Cc2ccccc2)NC(=O)[C@H]([C@@H](C)O)NC(=O)[C@H](CCCCN)NC(=O)[C@@H](Cc2c[nH]c3ccccc23)NC(=O)[C@H](Cc2ccccc2)NC(=O)[C@H](Cc2ccccc2)NC(=O)[C@H](Cc2ccc(O)cc2)NC(=O)[C@H](CCCNC(=N)N)NC(=O)[C@@H](N)CSSC[C@@H](C(=O)O)NC(=O)[C@H](CO)NC1=O [Example 3, L-Cysteinyl-L-arginyl-L-tyrosyl-L-phenylalanyl-L-phenylalanyl-D-tryptophyl-L-lysyl-L-threonyl-L-phenylalanyl-L-threonyl-L-seryl-L-cysteine cyclic (1-12) disulfide triacetate salt] (H-CRYFF[dW]KTFTSC-OH; disulfide 1-12) | 207 ± 29 | 80 ± 16 | 101 ± 24 | ≤ 50 | 278 ± 36 | 85 ±14 | 59 ± 16 | 12 ± 4 | 12 ± 4 | 13 ± 3 | ≤ 10 |
| C[C@@H](O)[C@@H]1NC(=O)[C@H](Cc2ccccc2)NC(=O)[C@H]([C@@H](C)O)NC(=O)[C@H](CCCCN)NC(=O)[C@@H](Cc2c[nH]c3ccccc23)NC(=O)[C@H](Cc2ccccc2)NC(=O)[C@H](Cc2ccccc2)NC(=O)[C@H](Cc2ccc(O)cc2)NC(=O)[C@H](Cc2c[nH]cn2)NC(=O)[C@@H](N)CSSC[C@@H](C(=O)O)NC(=O)[C@H](CO)NC1=O [Example 2, L-Cysteinyl-L-histidyl-L-tyrosyl-L-phenylalanyl-L-phenylalanyl-D-tryptophyl-L-lysyl-L-threonyl-L-phenylalanyl-L-threonyl-L-seryl-L-cysteine cyclic (1-12) disulfide diacetate salt] (H-CHYFF[dW]KTFTSC-OH; disulfide 1-12) |  |  | 68 ± 14 | ≤ 50 |  |  | 254 ± 38 |  |  | 58 ± 24 | ≤ 10 |
